# Molecular target: TAR RNA
# Test: In vitro binding of resin-bound compounds to TAR RNA (OD260 of unbound RNA)
# Parameters: species or system HIV
# Conditions: in vitro assay; compounds of formula I on TentaGel beads incubated with TAR RNA overnight at 4° C. in TK buffer; read-out: Kd (nM), binding constants
# Description: Binding of compounds of formula I and V to TAR RNA was measured by evaluating their inhibition of TAR-TAT complex formation in the presence of increasing levels of the compound to be tested. The compounds of formula I were tested in an in vitro assay; the compounds of formula V were tested in an in vivo assay.
# The TAR RNA used corresponds to the minimal sequence required for TAT responsiveness in vivo. This 29-residue oligonucleotide has the sequence: 5′-[…]-3′ (SEQ ID NO.: 1). TAR RNA was prepared by in vitro transcription. A “top strand” single-stranded DNA oligomer having the sequence 5′-TAATACGACTCACTATAG-3′ (SEQ ID NO.: 2) was annealed to a “bottom strand” single-stranded DNA template having the following sequence: 3′-[…]-5′ (SEQ ID NO.: 3), thereby generating a double-stranded region corresponding to a promoter sequence recognized by T7 RNA polymerase. Transcription was carried out in transcription buffer (40 mM Tris-HCl, pH 8.1, 1 mM spermidine, 0.01% Triton®X-100, 5 mM dithiothreitol, 4 mM each of ATP, GTP, CTP, and UTP at 37° C. for 4 to 5 hours. Reactions were performed in a volume of 0.02 ml containing 8 pmole of template (top strand annealed to bottom strand) and 40 to 60 units of T7 RNA polymerase. Transcription was terminated by adding an equal volume of loading buffer (9M urea, 1 mmol EDTA, 0.1M bromophenol blue in 1XTBE buffer; TBE is 45 mmol trisborate at pH 8). Product RNA was purified by electrophoresis through a denaturing 20% polyacrylamide gel containing 8M urea. RNA was extracted from the gel, precipitated, dissolved in dithylpyrocarbonate-treated water, and stored at −20° C. until used.
# In vitro assay conditions: Compounds AA-DU were synthesized on TentaGel S—NH2 (4.6 mmole). All Fmoc-amino acids were purchased from Bachem (Torrance, Calif.). 1-hydroxybenzotriazole (HOBT) and diisopropylcarbodiimide (DIPCDI) were obtained from Aldrich Chemical Co., Milwalkee, Wis. Piperidine and trifluoroacetic acid were purchased from Applied Biosystems Division, Perkin-Elmer. Compounds AA-DU were synthesized manually according to standard solid-phase peptide synthesis protocols. Coupling efficiencies of residues at each step were monitored by Kaiser test. Deprotection of trimer peptides was carried out in 10% water in trifluoroacetic acid (1 mL) for 16 hours at room temperature. After filtration of solvents, the resin was washed with water (1 mL×4), DMF (1 mL×4), dichloromethane (1 mL×4), and dried under reduced pressure. The compounds attached to the resin (10 beads) were placed in an Eppendorf tube and washed with TK buffer ([…]). The beads were suspended in TK buffer ([…]) and incubated with TAR RNA ([…]) overnight at 4° C. The suspension was centrifuged and the supernatant containing unbound RNA was transferred to a cuvette for OD260 measurements. The UV absorbance was measured by a Shimadzu UV-1601 spectrometer. Equilibrium concentrations of RNA were determined from these measurements. Given that the initial concentrations of ligand and RNA are known, and assuming simple bimolecular receptor/substrate binding, dissociation constant (KD) was calculated from straightforward equations.
row,SMILES,Kd [nM]
1,"NCCCC[C@H](N)COC(=O)N[C@H](CCCCN)COC(=O)N[C@@H](CCCCN)COC(N)=O [Compound CA, Carbamic acid 6-amino-2-[6-amino-2-(2,6-diamino-hexyloxycarbonylamino)-hexyloxycarbonylamino]-hexyl ester]",460
2,"NCCCC[C@@H](N)COC(=O)N[C@H](CCCCN)COC(=O)N[C@@H](CCCCN)COC(N)=O [Compound CB, Carbamic acid 6-amino-2-[6-amino-2-(2,6-diamino-hexyloxycarbonylamino)-hexyloxycarbonylamino]-hexyl ester]",603
3,"NCCCC[C@@H](COC(N)=O)NC(=O)OC[C@@H](CCCCN)NC(=O)[C@@H](N)CCCCN [Compound CC, Carbamic acid 6-amino-2-[6-amino-2-(2,6-diamino-hexanoylamino)-hexyloxycarbonylamino]-hexyl ester]",567
4,"NCCCCCNCC(=O)N[C@H](CCCCN)COC(=O)N[C@@H](CCCCN)COC(N)=O [Compound CE, Carbamic acid 6-amino-2-{6-amino-2-[2-(5-amino-pentylamino)-acetylamino]-hexyloxycarbonylamino}-hexyl ester]",301
5,"NCCCCCCCNCC(=O)N[C@H](CCCCN)COC(=O)N[C@@H](CCCCN)COC(N)=O [Compound CF, Carbamic acid 6-amino-2-{6-amino-2-[2-(7-amino-heptylamino)-acetylamino]-hexyloxycarbonylamino}-hexyl ester]",567
6,"NCCCCNCC(=O)N[C@H](CCCCN)COC(=O)N[C@@H](CCCCN)COC(N)=O [Compound CG, Carbamic acid 6-amino-2-{6-amino-2-[2-(4-amino-butylamino)-acetylamino]-hexyloxycarbonylamino}-hexyl ester]",603
7,"N=C(N)NCCC[C@H](N)COC(=O)N[C@H](CCCCN)COC(=O)N[C@@H](CCCCN)COC(N)=O [Compound CH, Carbamic acid 6-amino-2-[6-amino-2-(2-amino-5-guanidino-pentyloxycarbonylamino)-hexyloxycarbonylamino]-hexyl ester]",865
8,"NCCCC[C@@H](N)COC(=O)N[C@@H](CCCCN)COC(=O)N[C@@H](CCCCN)COC(N)=O [Compound CK, Carbamic acid 6-amino-2-[6-amino-2-(2,6-diamino-hexyloxycarbonylamino)-hexyloxycarbonylamino]-hexyl ester]",1110
9,"NCCCC[C@@H](COC(N)=O)NC(=O)OC[C@H](CCCCN)NC(=O)[C@H](N)CCCCN [Compound CM, Carbamic acid 6-amino-2-[6-amino-2-(2,6-diamino-hexanoylamino)-hexyloxycarbonylamino]-hexyl ester]",491
10,"NCCCCCNCC(=O)N[C@@H](CCCCN)COC(=O)N[C@@H](CCCCN)COC(N)=O [Compound CN, Carbamic acid 6-amino-2-{6-amino-2-[2-(5-amino-pentylamino)-acetylamino]-hexyloxycarbonylamino}-hexyl ester]",235
11,"NCCCCCCCNCC(=O)N[C@@H](CCCCN)COC(=O)N[C@@H](CCCCN)COC(N)=O [Compound CO, Carbamic acid 6-amino-2-{6-amino-2-[2-(7-amino-heptylamino)-acetylamino]-hexyloxycarbonylamino}-hexyl ester]",147
12,"NCCCCNCC(=O)N[C@@H](CCCCN)COC(=O)N[C@@H](CCCCN)COC(N)=O [Compound CP, Carbamic acid 6-amino-2-{6-amino-2-[2-(4-amino-butylamino)-acetylamino]-hexyloxycarbonylamino}-hexyl ester]",678
13,"N=C(N)NCCC[C@H](N)COC(=O)N[C@@H](CCCCN)COC(=O)N[C@@H](CCCCN)COC(N)=O [Compound CQ, Carbamic acid 6-amino-2-[6-amino-2-(2-amino-5-guanidino-pentyloxycarbonylamino)-hexyloxycarbonylamino]-hexyl ester]",2350
14,"NCCCC[C@@H](COC(N)=O)NC(=O)OC[C@H](CCCCN)NC(=O)OC[C@H](N)CCC(N)=O [Compound CR, Carbamic acid 6-amino-2-[6-amino-2-(2-amino-4-carbamoyl-butoxycarbonylamino)-hexyloxycarbonylamino]-hexyl ester]",981
15,"NCCCC[C@H](N)COC(=O)N(CCCCN)CC(=O)N[C@@H](CCCCN)COC(N)=O [Compound CS, Carbamic acid 6-amino-2-{2-[(4-amino-butyl)-(2,6-diamino-hexyloxycarbonyl)-amino]-acetylamino}-hexyl ester]",491
16,"NCCCC[C@@H](N)COC(=O)N(CCCCN)CC(=O)N[C@@H](CCCCN)COC(N)=O [Compound CT, Carbamic acid 6-amino-2-{2-[(4-amino-butyl)-(2,6-diamino-hexyloxycarbonyl)-amino]-acetylamino}-hexyl ester]",147
17,"NCCCC[C@@H](COC(N)=O)NC(=O)CN(CCCCN)C(=O)[C@@H](N)CCCCN [Compound CU, Carbamic acid 6-amino-2-{2-[(4-amino-butyl)-(2,6-diamino-hexanoyl)-amino]-acetylamino}-hexyl ester]",718
18,"NCCCC[C@@H](COC(N)=O)NC(=O)CN(CCCCN)C(=O)[C@H](N)CCCCN [Compound CV, Carbamic acid 6-amino-2-{2-[(4-amino-butyl)-(2,6-diamino-hexanoyl)-amino]-acetylamino}-hexyl ester]",567
19,NCCCCCNCC(=O)N(CCCCN)CC(=O)N[C@@H](CCCCN)COC(N)=O [Compound CW],3980
20,"NCCCCCCCNCC(=O)N(CCCCN)CC(=O)N[C@@H](CCCCN)COC(N)=O [Compound CX, Carbamic acid 6-amino-2-(2-{(4-amino-butyl)-[2-(7-amino-heptylamino)-acetyl]-amino}-acetylamino)-hexyl ester]",256
21,"NCCCCNCC(=O)N(CCCCN)CC(=O)N[C@@H](CCCCN)COC(N)=O [Compound CY, Carbamic acid 6-amino-2-(2-{(4-amino-butyl)-[2-(4-amino-butylamino)-acetyl]-amino}-acetylamino)-hexyl ester]",523
22,"N=C(N)NCCC[C@H](N)COC(=O)N(CCCCN)CC(=O)N[C@@H](CCCCN)COC(N)=O [Compound CZ, Carbamic acid 6-amino-2-{2-[(4-amino-butyl)-(2-amino-5-guanidino-pentyloxycarbonyl)-amino]-acetylamino}-hexyl ester]",183
23,"NCCCC[C@@H](COC(N)=O)NC(=O)CN(CCCCN)C(=O)OC[C@H](N)CCC(N)=O [Compound DA, Carbamic acid 6-amino-2-{2-[(4-amino-butyl)-(2-amino-4-carbamoyl-butoxycarbonyl)-amino]-acetylamino}-hexyl ester]",301
24,"NCCCCCN(CC(=O)N[C@@H](CCCCN)COC(N)=O)C(=O)OC[C@@H](N)CCCCN [Compound DB, Carbamic acid 6-amino-2-{2-[(5-amino-pentyl)-(2,6-diamino-hexyloxycarbonyl)-amino]-acetylamino}-hexyl ester]",256
25,"NCCCCCN(CC(=O)N[C@@H](CCCCN)COC(N)=O)C(=O)OC[C@H](N)CCCCN [Compound DC, Carbamic acid 6-amino-2-{2-[(5-amino-pentyl)-(2,6-diamino-hexyloxycarbonyl)-amino]-acetylamino}-hexyl ester]",5110
